In ChEMBL document CHEMBL5303304, “EUbOPEN Chemogenomics Library - IncuCyte” (2023):

How the values were obtained:
Type in all cases: toxicity, cell-based
U2OS = assay: Incucyte cell viability with U2OS; conditions: human, 10 µM, compound concentration 10 uM
Fibroblast = assay: Incucyte cell viability with human fibroblast; conditions: 10 µM, compound concentration 10 uM
HEK-293T = assay: Incucyte cell viability with HEK293T; conditions: human, 10 µM, compound concentration 10 uM
Note: unitless GR value; below 1 slowed growth and below 0 cell loss.

| Structure (SMILES) | Growth Rate (U2OS; 6 h, replicate number 1) | Growth Rate (U2OS; 6 h, replicate number 2) | Growth Rate (U2OS; 12 h, replicate number 2) | Growth Rate (U2OS; 18 h, replicate number 1) | Growth Rate (U2OS; 18 h, replicate number 2) | Growth Rate (U2OS; 24 h, replicate number 1) | Growth Rate (U2OS; 24 h, replicate number 2) | Growth Rate (Fibroblast; 0 h, replicate number 1) | Growth Rate (Fibroblast; 12 h, replicate number 2) | Growth Rate (Fibroblast; 18 h, replicate number 1) | Growth Rate (Fibroblast; 18 h, replicate number 2) | Growth Rate (Fibroblast; 24 h, replicate number 1) | Growth Rate (Fibroblast; 24 h, replicate number 2) | Growth Rate (HEK-293T; 0 h, replicate number 2) | Growth Rate (HEK-293T; 12 h, replicate number 1) | Growth Rate (HEK-293T; 18 h, replicate number 1) | Growth Rate (HEK-293T; 24 h, replicate number 1) | Growth Rate (Fibroblast; 0 h, replicate number 2) | Growth Rate (HEK-293T; 6 h, replicate number 1) | Growth Rate (Fibroblast; 6 h, replicate number 1) | further results |
| --- | --- | --- | --- | --- | --- | --- | --- | --- | --- | --- | --- | --- | --- | --- | --- | --- | --- | --- | --- | --- | --- |
| Cc1cc(C)cc(C(=O)NOCCCCCC(=O)NO)c1 | 0.62 | 0.86 | 0.58 | 0.71 | 0.5 | 0.26 | 0.22 | -0.28 | 0.86 | -0.74 | 0.23 | -0.33 | 0.51 | 0.89 | 0.34 | 0.12 | 0.14 | – | – | – | Growth Rate (Fibroblast; 6 h, replicate number 2): -0.16; Growth Rate (Fibroblast; 12 h, replicate number 1): -0.96; Growth Rate (HEK-293T; 12 h, replicate number 2): 0.82; Growth Rate (HEK-293T; 18 h, replicate number 2): 0.44; Growth Rate (HEK-293T; 24 h, replicate number 2): 0.28 |
| CCCCNc1ncc2c(-c3ccc(CN4CCN(C)CC4)cc3)cn([C@H]3CC[C@H](O)CC3)c2n1 | – | – | 0.4 | 0.13 | -0.13 | -0.14 | -0.3 | – | 0.3 | -0.08 | -0.25 | -0.18 | -0.33 | 0.42 | -0.54 | -0.43 | -0.3 | -0.9 | -0.33 | – | Growth Rate (U2OS; 0 h, replicate number 2): 0.17; Growth Rate (Fibroblast; 12 h, replicate number 1): 0.6; Growth Rate (HEK-293T; 6 h, replicate number 2): -0.21; Growth Rate (HEK-293T; 12 h, replicate number 2): -0.55; Growth Rate (HEK-293T; 18 h, replicate number 2): -0.41; Growth Rate (HEK-293T; 24 h, replicate number 2): -0.28 |
| CC(C)c1nc2c(c3c1[C@H](c1ccc(C(F)(F)F)cc1)OC31CCOCC1)[C@H](O)CC(C)(C)C2 | 0.38 | – | 0.84 | 0.93 | – | 0.88 | – | -1 | -0.47 | -0.17 | -0.05 | 0.08 | 0.1 | -0.1 | 0.02 | 0.41 | 0.62 | – | -0.63 | -0.78 | Growth Rate (U2OS; 0 h, replicate number 1): -0.17; Growth Rate (U2OS; 12 h, replicate number 1): 0.82; Growth Rate (Fibroblast; 6 h, replicate number 2): -0.98; Growth Rate (Fibroblast; 12 h, replicate number 1): -0.62; Growth Rate (HEK-293T; 18 h, replicate number 2): 0.84; Growth Rate (HEK-293T; 24 h, replicate number 2): 0.94 |
| Nc1nc(-c2nn(Cc3ccccc3F)c3ncccc23)ncc1C1CC1 | 0.69 | – | – | – | 0.87 | 0.68 | 0.71 | – | – | 0.69 | – | 0.73 | 0.8 | 0.14 | – | – | – | -0.93 | – | 0.35 | – |
| O=C([O-])c1cc2cc(Cc3cccnc3)ccc2o1.[Na+] | 0.77 | – | 0.98 | 1 | – | 0.71 | – | – | 0.64 | – | – | – | – | 0.2 | 0.56 | – | – | – | 0.1 | 0.42 | Growth Rate (U2OS; 0 h, replicate number 1): -0.13; Growth Rate (U2OS; 12 h, replicate number 1): 0.4; Growth Rate (HEK-293T; 6 h, replicate number 2): 0.83 |
| O=C(Nc1ccc(N2CCC(C(=O)N3CCOCC3)CC2)cc1)c1cnc(Oc2ccccc2)nc1 | 0.96 | – | – | – | – | – | – | – | 0.75 | 0.95 | 0.87 | 0.99 | 0.78 | -0.09 | 0.64 | 0.92 | 0.95 | -0.91 | -0.02 | 0.98 | – |
| CCOC(=O)CS(=O)(=O)c1ccc([C@@H](CO)NC(=O)c2cc3c(Cl)c(Cl)c(C)cc3n2C)cc1 | -0.2 | 1 | 0.52 | -0.31 | 0.87 | -0.16 | 0.97 | -1 | -0.95 | -0.91 | -0.85 | -0.81 | -0.7 | 0.13 | – | – | – | – | – | – | Growth Rate (U2OS; 0 h, replicate number 1): -0.21; Growth Rate (U2OS; 12 h, replicate number 1): -0.25; Growth Rate (Fibroblast; 6 h, replicate number 2): -1; Growth Rate (Fibroblast; 12 h, replicate number 1): -0.98 |
| CC(C)Oc1ccc(F)c(-c2cnc(N)c(C(=O)Nc3cnccc3N3CCC[C@@H](C(=O)O)C3)n2)c1 | – | – | – | – | – | 0.84 | – | 0.44 | – | – | 0.97 | – | 0.61 | 0.37 | -0.19 | -0.11 | -0.01 | – | – | -1 | Growth Rate (U2OS; 0 h, replicate number 2): -0.44; Growth Rate (HEK-293T; 6 h, replicate number 2): 0.61; Growth Rate (HEK-293T; 12 h, replicate number 2): -0.28; Growth Rate (HEK-293T; 18 h, replicate number 2): -0.06; Growth Rate (HEK-293T; 24 h, replicate number 2): 0.05 |
| CC1(C)Oc2ncnc(N)c2N=C1c1ccc([C@H]2CC[C@H](CC(=O)O)CC2)cc1 | 0.57 | 0.92 | 0.89 | 0.85 | – | 0.96 | – | -0.99 | – | – | – | – | 0.97 | -0.22 | – | 0.89 | 0.94 | -0.9 | 0.77 | 0.56 | Growth Rate (U2OS; 0 h, replicate number 1): 0.58; Growth Rate (U2OS; 0 h, replicate number 2): -0.4; Growth Rate (Fibroblast; 12 h, replicate number 1): 0.81; Growth Rate (HEK-293T; 6 h, replicate number 2): 0.36; Growth Rate (HEK-293T; 24 h, replicate number 2): 0.99 |
| O=C1CCC(N2Cc3cc(CNC(=O)C(F)(F)c4ccc(Cl)cc4)ccc3C2=O)C(=O)N1 (stereo not drawn) | 0.81 | 0.89 | 0.98 | – | – | 0.99 | 0.85 | – | 0.51 | – | 0.98 | – | 0.99 | 0.81 | 0.83 | 0.81 | 0.89 | – | – | – | Growth Rate (U2OS; 0 h, replicate number 2): 0.39; Growth Rate (U2OS; 12 h, replicate number 1): 0.97; Growth Rate (HEK-293T; 18 h, replicate number 2): 1 |
| CCCCC/C=C/C=C1/C(=O)C=C[C@@H]1C/C=C\CCCC(=O)O | – | 0.82 | 0.62 | 0.74 | 0.7 | 0.68 | 0.85 | – | 0.93 | 0.94 | 0.89 | 0.72 | 0.7 | -0.01 | 0.88 | 0.89 | 0.86 | -0.86 | – | 0.99 | Growth Rate (U2OS; 0 h, replicate number 2): -0.2; Growth Rate (HEK-293T; 12 h, replicate number 2): 0.95; Growth Rate (HEK-293T; 18 h, replicate number 2): 0.98; Growth Rate (HEK-293T; 24 h, replicate number 2): 0.94 |
| CO[C@H](C)CN1CC[C@]2(C)c3cccc(O)c3C[C@H]1C2(C)C.Cl | 0.44 | 0.57 | 0.71 | 0.92 | 0.84 | 0.84 | 0.92 | -1 | – | – | – | 0.9 | – | -0.19 | – | – | – | -0.48 | – | – | Growth Rate (U2OS; 0 h, replicate number 2): -0.73; Growth Rate (U2OS; 12 h, replicate number 1): 0.7 |
| Cc1cc(CN)cc(C)c1-c1ncn(C)c1-c1ccnc2cc(F)ccc12.Cl | 0.34 | 0.85 | – | – | – | – | – | -1 | – | 0.6 | 0.81 | 0.89 | 0.96 | 0.04 | – | – | – | -0.39 | 0.92 | 0.02 | Growth Rate (U2OS; 12 h, replicate number 1): 0.92; Growth Rate (Fibroblast; 6 h, replicate number 2): -0.26; Growth Rate (Fibroblast; 12 h, replicate number 1): 0.77 |
| Cn1c(C(=O)N[C@@H](CO)c2ccc(C(=O)O)cc2)cc2cc(Cl)ccc21 | 0.58 | – | – | – | – | 0.92 | – | – | 0.49 | – | 0.69 | 1 | 0.68 | 0.28 | – | – | 0.96 | 0.3 | 0.78 | – | Growth Rate (U2OS; 0 h, replicate number 1): 0.76; Growth Rate (Fibroblast; 6 h, replicate number 2): -0.6 |
| Cl.Cl.N=C(N)NCCC[C@H](NC(=O)CC1(CC(=O)N2CCN(C3c4ccccc4NC(=O)c4ccccc43)CC2)CCCC1)C(=O)NCCn1c(=O)n(-c2ccccc2)n(-c2ccccc2)c1=O (stereo partly drawn) | 0.65 | 0.78 | 0.78 | 0.83 | 0.87 | 0.73 | 0.99 | – | – | 0.59 | – | 0.6 | – | -0.2 | – | – | – | 0.97 | 0.47 | 0.27 | Growth Rate (U2OS; 0 h, replicate number 1): 0.38; Growth Rate (U2OS; 0 h, replicate number 2): 0.1; Growth Rate (U2OS; 12 h, replicate number 1): 0.69; Growth Rate (Fibroblast; 12 h, replicate number 1): 0.91 |
